# Laboratory results as given in US10626349B2, “Cleavable surfactants” (PROMEGA CORPORATION, priority 2007, dated 2020).
# Key:
# [1] = Acid and thermal degradation of the surfactant; conditions: for degradation after overnight incubation (in words): concentration not given; for degradation by acid (0.5% TFA) or by heat (boiling), in words: 3236: 0.1% solution in 0.5% TFA 30 minutes at 37° C. or 5 minutes of boiling without TFA; for acid-lability (in words): 0.5% TFA at 37° C. where stated (3237: 30 minutes), 3271 by TLC analysis; for thermolability (in words): 3266: 5 minutes at 95° C.
# [2] = Solubility of the surfactant; conditions: for solubility in aqueous solutions (in words) / solubility in aqueous solutions (concentration dissolved to): aqueous solution; for solubility (concentration dissolved to): in 50 mM ammonium bicarbonate
# [3] = target: T1, Bacteriorhodopsin digested with chymotrypsin (Halobacterium salinarum, UniProt P02945); test: Bacteriorhodopsin/Chymotrypsin digest, HPLC peak area versus RapiGest control; type: biochemical; conditions: 0.025% surfactant, BR heated (boiled) with surfactant 5 minutes at 95° C., chymotrypsin 10:1, 1 hour at 37° C.; ratio to RapiGest control
# T1 sequence (P02945 14-261 limits assumed): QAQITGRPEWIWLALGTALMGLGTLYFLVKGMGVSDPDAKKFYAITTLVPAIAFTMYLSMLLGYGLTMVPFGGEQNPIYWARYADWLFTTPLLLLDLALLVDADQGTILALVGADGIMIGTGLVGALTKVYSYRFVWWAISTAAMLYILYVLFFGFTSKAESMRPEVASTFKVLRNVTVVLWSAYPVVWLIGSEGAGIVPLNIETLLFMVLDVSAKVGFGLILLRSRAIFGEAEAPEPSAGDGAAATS
# Protocol: Bacteriorhodopsin (25 μs) was heated with 0.025% Rapigest™ surfactant or the indicated compound of the invention for 5 minutes at 95° C., then digested with chymotrypsin (Sigma) at a 10:1 ratio in 125 μL 50 mM Ammonium bicarbonate for 1 hour at 37° C. After one hour TFA was added to 0.5-2% and the mixtures were incubated at 37° C. or 65° C. for 20 or 30 minutes. Degraded surfactant was removed by centrifugation at 14,000×g for 5 minutes. An aliquot of 50-100 μL of digested protein was analyzed by HPLC as described above.
# Compound 3211, 3212, 3224 and Rapigest™ surfactant control for FIG. 13C reactions: Bacteriorhodopsin (25 μs) was solubilized with 0.025% compound of interest for 1-2 minutes at room temperature, then digested with chymotrypsin (Sigma) at a 10:1 ratio in 125 μL 50 mM Ammonium bicarbonate for 1 hour at 37° C. After one hour TFA was added to 0.5-2% and the mixtures were incubated at 37° C. or 65° C. for 20 or 30 minutes. Degraded surfactant was removed by centrifugation at 14,000×g for 5 minutes. An aliquot of 50-100 μL of digested protein was analyzed by HPLC as described above.
# (§1) For each compound numbered below in Example 12, the rate of enhanced digestion was determined from the ratio of the surfactant peak area (surfactant # Pk. Area) to the Rapigest™ surfactant peak area (RG Pk area). Peak area was determined as the sum of all peaks integrated from 8-22 minutes.
# [4] = target: T2, Myoglobin from horse heart digested with trypsin (Equus caballus, UniProt P68082); test: Myoglobin/Trypsin digest, HPLC peak area versus RapiGest control; type: biochemical; conditions: 0.01% surfactant, trypsin 50:1, 20 minutes at 37° C.; ratio to RapiGest control, >1 = more digestion
# T2 construct: Myoglobin from horse heart; from tissue; host or cells: horse heart
# T2 sequence (P68082 2-154 limits assumed): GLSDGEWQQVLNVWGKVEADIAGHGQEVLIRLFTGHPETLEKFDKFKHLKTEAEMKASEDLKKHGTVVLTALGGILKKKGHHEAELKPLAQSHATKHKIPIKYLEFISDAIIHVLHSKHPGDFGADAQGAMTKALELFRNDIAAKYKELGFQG
# Protocol: Myoglobin from horse heart (typically 25 μs) was digested with trypsin (Promega) at a 50:1 ratio in a volume of 125 μL (typical) of 50 mM Ammonium bicarbonate for 20 minutes at 37° C. with 0.01% RapiGest™ surfactant or 0.01% of the indicated compound of the invention (upper and lower chromatograms, respectively). TFA was added to 0.5-2% and the mixtures were incubated at 37° C. or 65° C. for 20 or 30 minutes. Degraded surfactant was removed by centrifugation at 14,000×g for 5 minutes. HPLC analysis was performed on a 25-50 μL reaction sample using an HP1050 LC system with an Agilent Sorbax SB-C18 column (3.0×100 mm, 3.5 micron) and a gradient of 0.1% TFA (97.5% initial) and Acetonitrile, 0.01% TFA (55% final condition followed by a 100% wash step) and a flow rate of 0.75 mL/min. Peptides were detected at 214 and 280 nm.
# as §1
# [5] = Hydrolytic stability in 50 mM ammonium bicarbonate (reverse-phase HPLC); type: physicochemical; set-up: key: >>: compound 100% stable over course of experiment
# Protocol: Hydrolytic stability was measured by monitoring the change in retention time of the intact surfactant by reverse-phase HPLC. The ½-life is defined as the time required to reach 50% degradation.
# [6] = surfactant conc. 0.025% in 50 mM ammonium bicarbonate
# [7] = surfactant conc. 1% in 50 mM ammonium bicarbonate
structure (smiles),measurement,setting,value
CCCCCCOc1ccc(COC(=O)NCCCS(=O)(=O)O)cc1 [Compound 3186],time to degradation of 0.01% solution,[1]; 37° C. where stated,≤ 30 min
same,solubility in aqueous solutions (in words),[2],some solubility in aqueous solution
same,"surfactant Pk area/RG Pk area, Bacteriorhodopsin/Chymotrypsin digest",[3],0.45
CCCCCC(OC(=O)NCCCS(=O)(=O)O)c1ccccc1 (stereo not shown) [Compound 3190],time to degradation of 0.01% solution,[1]; 37° C. where stated,30 min
same,degradation of 0.1% solution (in words),[1],overnight
same,solubility in aqueous solutions (concentration dissolved to),[2],0.5%
same,"surfactant Pk area/RG Pk area, Bacteriorhodopsin/Chymotrypsin digest",[3],0.34
CCCCCCCCCCCC(C)(C)OC(=O)Oc1ccc(NCCCCS(=O)(=O)O)cc1 [Compound 3195],"surfactant Pk area/RG Pk area, Myoglobin/Trypsin digest",[4],0.5
same,degradation after overnight incubation (in words),[1],No degradation was observed even after overnight incubation
same,solubility in aqueous solutions (concentration dissolved to),[2],not more than 0.2%
CCCCCCCCCCCC(C)(C)OC(=O)Oc1ccc(N(CCCCS(=O)(=O)[O-])CCCCS(=O)(=O)O)cc1.[Na+] [Compound 3196],"surfactant Pk area/RG Pk area, Myoglobin/Trypsin digest",[4],0.65
same,time to degradation of 0.01% solution,[1]; 37° C. where stated,30 min
same,degradation of 0.1% solution (in words),[1],overnight
same,solubility in aqueous solutions (concentration dissolved to),[2],0.5%
CCCCCCC(OC(=O)NCCCS(=O)(=O)O)c1ccc(C(F)(F)F)cc1 (stereo not shown) [Compound 3199],"surfactant Pk area/RG Pk area, Myoglobin/Trypsin digest",[4],0.37
same,degradation after overnight incubation (in words),[1],No degradation was observed even after overnight incubation
same,solubility in aqueous solutions (concentration dissolved to),[2],0.5%
CCCCCC/C=C/C(C)OC(=O)NCCCS(=O)(=O)O (stereo not shown) [Compound 3201],"surfactant Pk area/RG Pk area, Myoglobin/Trypsin digest",[4],0.3
same,solubility in aqueous solutions (concentration dissolved to),[2],0.5%
same,"surfactant Pk area/RG Pk area, Bacteriorhodopsin/Chymotrypsin digest",[3],0.4
CCCCCC/C=C/C(C)OC(=O)NCC(O)CS(=O)(=O)[O-].[Na+] (stereo not shown) [Compound 3203],degradation of 0.1% solution (in words),[1],degraded after overnight incubation
same,solubility in aqueous solutions (concentration dissolved to),[2],0.5%
same,"surfactant Pk area/RG Pk area, Bacteriorhodopsin/Chymotrypsin digest",[3],0.4
CCCCCC(OC(=O)SCCS(=O)(=O)O)c1ccccc1 (stereo not shown) [Compound 3207],time to degradation of 0.01% solution,[1]; 37° C. where stated,≤ 60 min
same,solubility in aqueous solutions (concentration dissolved to),[2],0.5%
CCCCCC/C=C/C(C)OC(=O)Oc1ccc(NCCCS(=O)(=O)[O-])cc1.[Na+] (stereo not shown) [Compound 3209],"surfactant Pk area/RG Pk area, Myoglobin/Trypsin digest",[4],2.1
same,degradation after overnight incubation (in words),[1],No degradation was observed even after overnight incubation
same,solubility in aqueous solutions (concentration dissolved to),[2],0.5%
CCCCCCCC(C)(C)OC(=O)Oc1ccc(NCCCS(=O)(=O)[O-])cc1.[Na+] [Compound 3210],"surfactant Pk area/RG Pk area, Myoglobin/Trypsin digest",[4],0.3
same,degradation rate (grade in words),[1],moderate
same,solubility in aqueous solutions (concentration dissolved to),[2],0.5%
CCCCCCCCCCC(OC(=O)NCCCS(=O)(=O)[O-])c1ccc(OC)cc1.[Na+] (stereo not shown) [Compound 3212],"surfactant Pk area/RG Pk area, Myoglobin/Trypsin digest",[4],1.4
same,½-life,[5]; surfactant conc. 0.0025% in 50 mM ammonium bicarbonate,3.7 h
same,½-life,[5]; [6],21 h
same,½-life,[5]; surfactant conc. 0.10% in 50 mM ammonium bicarbonate,38 h
same,½-life,[5]; [7],>>
same,time to degradation in 0.5% TFA,"[1]; 0.5% TFA, 37° C. where stated, 0.1% solution for 3220 and 3266",15 min
same,time to degradation by boiling without TFA,[1]; boiling without TFA,5 min
same,solubility (concentration dissolved to),[2],1%
CCCCCCCCCCCc1ccc(C(OCCc2ccc(N(CCCCS(=O)(=O)[O-])CCCCS(=O)(=O)[O-])cc2)(c2ccccc2)c2ccc(OCCCCCCCCCC)cc2)cc1.[Na+].[Na+] (stereo not shown) [Compound 3216],solubilized in DMSO to,[2]; 100% DMSO,10%
same,solubility in aqueous solutions (in words),[2],Insoluble in aqueous solutions
same,"surfactant Pk area/RG Pk area, Bacteriorhodopsin/Chymotrypsin digest",[3],0.7
CCCCCCCCCCOc1ccc(C(OCCc2ccc(N(CCCCS(=O)(=O)[O-])CCCCS(=O)(=O)[O-])cc2)(c2ccccc2)c2ccc(OC)cc2)cc1.[Na+].[Na+] (stereo not shown) [Compound 3219],solubility in aqueous solutions (concentration dissolved to),[2],1%
CCCCCCCCCCCCC(OC(=O)NCCCS(=O)(=O)O)c1cc(OC)c(OC)c(OC)c1 (stereo not shown) [Compound 3267],"surfactant Pk area/RG Pk area, Myoglobin/Trypsin digest",[4],0.9
same,"degradation by acid (0.5% TFA) or by heat (boiling), in words",[1],Did not degrade in 0.5% TFA or by boiling
same,solubility (concentration dissolved to),[2],2%
CCCCCCCCCCC(OC(=O)NCCCS(=O)(=O)O)c1cccs1 (stereo not shown) [Compound 3269],"surfactant Pk area/RG Pk area, Myoglobin/Trypsin digest",[4],1
same,½-life,[5]; surfactant conc. 0.03% in 50 mM ammonium bicarbonate,7 h
same,½-life,[5]; [7],135 h
same,solubility in aqueous solutions (concentration dissolved to),[2],1%
CCCCCCCCCCC(OC(=O)NCCCS(=O)(=O)O)c1ccc(Br)o1 (stereo not shown) [Compound 3270],"surfactant Pk area/RG Pk area, Myoglobin/Trypsin digest",[4],0.8
same,½-life,[5]; [6],6.5 h
same,½-life,[5]; [7],40 h
same,solubility in aqueous solutions (concentration dissolved to),[2],0.5%
CCCCCCCCCCC(OC(=O)NCCCS(=O)(=O)O)c1ccoc1 (stereo not shown) [Compound 3271],"surfactant Pk area/RG Pk area, Myoglobin/Trypsin digest",[4],0.9
same,½-life,[5]; [6],>350 h
same,½-life,[5]; [7],>>
same,acid-lability (in words),[1],Just partially acid-labile
same,thermolability (in words),[1],thermostable
same,solubility in aqueous solutions (concentration dissolved to),[2],1%
CCCCCCCCCCC(OC(=O)NCCCS(=O)(=O)O)c1ccsc1 (stereo not shown) [Compound 3273],"surfactant Pk area/RG Pk area, Myoglobin/Trypsin digest",[4],0.75
same,acid-lability (in words),[1],Just partially acid-labile
same,thermolability (in words),[1],thermostable
same,solubility in aqueous solutions (concentration dissolved to),[2],1%
CCCCCCCCCCC(OC(=O)NCCCS(=O)(=O)O)c1ccc(Cl)o1 (stereo not shown) [Compound 3274],"surfactant Pk area/RG Pk area, Myoglobin/Trypsin digest",[4],1
same,½-life,[5]; [6],~6 h
same,"degradation by acid (0.5% TFA) or by heat (boiling), in words",[1],Acid- and thermolabile
same,solubility in aqueous solutions (concentration dissolved to),[2],1%
CCCCCCCCCCC(OC(=O)NCCCS(=O)(=O)O)c1ccc(C(F)(F)F)o1 (stereo not shown) [Compound 3275],"surfactant Pk area/RG Pk area, Myoglobin/Trypsin digest",[4],0.2
same,½-life,[5]; [6],>300 h
same,½-life,[5]; [7],>>
same,"degradation by acid (0.5% TFA) or by heat (boiling), in words",[1],Fully acid- and thermostable at the tested conditions
same,solubility in aqueous solutions (concentration dissolved to),[2],1%
